Reference: publication PMC10987111, “Rational Identification of Novel Antibody‐Drug Conjugate with High Bystander Killing Effect against Heterogeneous Tumors” (Advanced Science, 2024)
Read-outs that look alike come from different tables or passages of the source.

How the values were obtained:
SKBR-3 = experiment: Cell viability assay (CCK-8), SKBR-3; format: cell-based, human
Method: (§1) Cells were seeded in a 96‐well plate at 1000–4000 cells per well for different cell lines. After overnight incubation, serially diluted samples (100 µL) were added to each well, and the plate was incubated at 37°C for 72 h (payloads) or 108 h (ADCs). After the old medium was replaced with 100 µL fresh medium, 10 µL of the Cell Counting Kit‐8 (CCK‐8) was added to each well, and the plate was incubated at 37°C for 2 h. After gently agitating the plate, the absorbance at 450 nm was recorded using a BioTek Synergy microplate reader. EC50 values were calculated using GraphPad Prism 9.3 software. All assays were performed in triplicate.

MDA-MB-231 = experiment: Cell viability assay (CCK-8), MDA-MB-231; format: cell-based, human; conditions: read-out: IC50 MDA-MB-231
Method: as §1

[1] = Parallel artificial membrane permeability assay (PAMPA); format: in vitro ADME; conditions: for Papp at 4 h, 10 µM: PAMPA
Method: PAMPA was performed by WuXi AppTec Co., Ltd. (Wuxi, China). In brief, 150 µL of 10.0 µM donor solutions (5% DMSO) were added to each well of the donor plate, whose PVDF membrane was precoated with 5 µL of 1% lecithin/dodecane mixture. Then, 300 µL of PBS was added to each well of the PTFE acceptor plate. After incubation for 4 h at room temperature with shaking at 300 rpm, the plate was removed from the incubator, and the solution was transferred from each acceptor and donor well and mixed with acetonitrile (containing internal standard) as samples. Acceptor samples and donor samples were all analyzed by LC‐MS/MS to determine permeability rates (Pe). All assays were performed in duplicates.

MDA-MB-453 = experiment: Cell viability assay (CCK-8), MDA-MB-453; format: cell-based; conditions: Homo sapiens, MDA-MB-453, 72 h, read-out: IC50 MDA-MB-453
Method: (§2) Cells were seeded in a 96‐well plate at 1000–4000 cells per well for different cell lines. […] After the old medium was replaced with 100 µL fresh medium, 10 µL of the Cell Counting Kit‐8 (CCK‐8) was added to each well, and the plate was incubated at 37°C for 2 h. After gently agitating the plate, the absorbance at 450 nm was recorded using a BioTek Synergy microplate reader. EC50 values were calculated using GraphPad Prism 9.3 software. All assays were performed in triplicate.

Topo I = biological target: T1, Topo I (Homo sapiens, UniProt P11387); experiment: Topo I-mediated DNA cleavage assay; format: biochemical; conditions: 10 µM
T1 sequence (P11387 1-765): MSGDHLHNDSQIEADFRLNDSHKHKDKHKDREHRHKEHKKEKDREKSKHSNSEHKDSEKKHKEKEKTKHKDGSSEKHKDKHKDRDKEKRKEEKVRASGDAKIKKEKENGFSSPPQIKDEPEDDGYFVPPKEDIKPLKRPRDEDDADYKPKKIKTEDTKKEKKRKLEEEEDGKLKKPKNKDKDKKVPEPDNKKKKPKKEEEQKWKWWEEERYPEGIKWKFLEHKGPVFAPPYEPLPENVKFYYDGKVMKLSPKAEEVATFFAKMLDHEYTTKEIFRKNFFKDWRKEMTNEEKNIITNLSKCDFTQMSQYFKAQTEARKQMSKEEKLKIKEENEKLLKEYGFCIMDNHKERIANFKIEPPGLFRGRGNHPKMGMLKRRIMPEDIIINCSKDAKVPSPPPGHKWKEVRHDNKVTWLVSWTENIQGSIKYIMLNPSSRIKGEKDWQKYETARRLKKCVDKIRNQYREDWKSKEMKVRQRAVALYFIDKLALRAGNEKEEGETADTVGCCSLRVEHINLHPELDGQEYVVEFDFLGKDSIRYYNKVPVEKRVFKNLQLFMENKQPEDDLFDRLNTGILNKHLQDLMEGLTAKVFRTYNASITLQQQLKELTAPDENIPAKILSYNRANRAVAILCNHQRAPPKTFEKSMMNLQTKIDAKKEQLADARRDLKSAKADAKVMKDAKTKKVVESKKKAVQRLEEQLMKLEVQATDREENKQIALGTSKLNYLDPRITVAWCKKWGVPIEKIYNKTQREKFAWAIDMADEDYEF
Method: DNA cleavage assay was performed by Huawei Pharmaceutical Co., Ltd. (Jinan, China) with reference to previous literature about camptothecin derivatives.^[ [63] ^]

JIMT-1 = experiment: Cell viability assay (CCK-8), JIMT-1; format: cell-based; conditions: Homo sapiens, JIMT-1, 72 h, read-out: IC50 JIMT-1
Method: as §1

MDA-MB-361 = experiment: Cell viability assay (CCK-8), MDA-MB-361; format: cell-based; conditions: Homo sapiens, MDA-MB-361, 72 h, read-out: IC50 MDA-MB-361
Method: as §1

NCI-N87 = experiment: Cell viability assay (CCK-8), NCI-N87; format: cell-based; conditions: Homo sapiens, NCI-N87, 72 h, read-out: IC50 NCI-N87
Method: as §2

[2] = system: breast tumors with low HER2 expression; parameters: method as in ref 25, 26 = [25]; 25 S. Modi , W. Jacot , T. Yamashita , J. Sohn , M. Vidal , E. Tokunaga , J. Tsurutani , N. T. Ueno , A. Prat , Y. S. Chae , K. S. Lee , N. Niikura , Y. H. Park , B. Xu , X. Wang , M. Gil‐Gil , W. Li || [26]; 26 Cancer Discov. 2022 , 12 , 1828 .; conditions: breast tumors with low HER2 expression ref 25, 26; cited from earlier work
[3] = system: NCI-N87 and MDA-MB-231/GFP co-culture system; experiment: In vitro co-culture model for bystander-killing evaluation; format: cell-based, human; conditions: GFP fluorescence intensity and fluorescence microscopy
Method: After overnight incubation, a single concentration or a serially diluted solution of each ADC was added. Cell viability was evaluated after 120 h using the cell counting kit‐8 assay. The mixed cell viability was determined by CCK‐8 assay. […] In the supernatant proliferation inhibition experiment, gradient concentrations of ADC were incubated with NCI‐N87 (4000 cells per well) for 48 h.

[4] = system: NCI-N87 cells and MDA-MB-231/teLuc cells (2: 5 ratio) xenograft; experiment: Xenograft mouse model of HER2-heterogeneous cancer (co-inoculation) with teLuc imaging; format: in vivo, BALB/c nude mice; conditions: single intravenous dose of 2 or 5 mg kg^-1
Method: On day 7, the tumors reached an average volume of ≈180 mm^3, mice were randomized to each group, and each ADC was given to the mice at a single dose of 5 or 2 mg kg^−1 through injection via the tail vein, with a volume of 10 mL kg^−1. The size of the tumor and body weight were monitored three times a week. The tumor volume was estimated on the mathematical formula, which is 1/2 × length × width^2.
Teal luciferase activity of each mouse in the HER2‐heterogeneous xenograft model was determined by an in vivo Imaging System (IVIS) Spectrum CT (PerkinElmer, USA) once a week (Day 7, 14, 21, 35) 10 min after intraperitoneal injection of pre‐dissolved DTZ (MeisenCTCC). The amount of luminescence was analyzed using analysis software (Living Image Software version 4.3.1; PerkinElmer) as average radiance (p per s per cm^2 per sr).

[5] = system: HER2-low-expressing urothelial carcinoma; parameters: method as in ref 29 = [29]; 29 H. Xu , X. Sheng , L. Zhou , X. Yan , S. Li , Z. Chi , C. Cui , L. Si , B. Tang , L. Mao , B. Lian , X. Wang , X. Bai , J. Li , J. Guo , JCO 2022 , 40 , 4519 .; conditions: patients with HER2(IHC 1+), 5/13, phase II ref 29; cited from earlier work
[6] = Homo sapiens, SK-BR-3, 72 h, read-out: IC50 SKBR-3
[7] = Homo sapiens, SK-BR-3, read-out: pIC50 (converted)
[8] = payloads, 3 days (72 h), HER2++, read-out: IC50 SKBR-3
[9] = 10.0 µM donor solution, 4 h, room temperature
[10] = Homo sapiens, SK-BR-3, Normalized from IC50 (μM) against SKBR-3, read-out: pIC50 (converted)
[11] = Homo sapiens, SK-BR-3, payloads, 3 days (72 h), HER2++, read-out: IC50 SKBR-3
[12] = Homo sapiens, MDA-MB-231, payloads, 3 days (72 h), HER2-
[13] = 10.0 µM donor solution, 4 h, room temperature, read-out: Peff (PAMPA permeability)

CC[C@@]1(O)C(=O)OCc2c1cc1n(c2=O)Cc2c-1nc1cc(F)c(C)c3c1c2[C@@H](NC(=O)[C@@H](O)C(C)C)CC3 [Ed1]
IC50 (SKBR-3; [6]): 0.129 µM
IC50 (SKBR-3; [7]): 0.129 µM

CC[C@@]1(O)C(=O)OCc2c1cc1n(c2=O)Cc2c-1nc1cc(F)c(C)c3c1c2[C@@H](NC(=O)C1(O)CCCCC1)CC3 [Ed11]
IC50 (SKBR-3; [8]): 0.0177 ± 0.00534 µM
IC50 (MDA-MB-231; payloads, 3 days (72 h), HER2-): 5.43 nM
Peff (PAMPA permeability) [1, 9]: 6.12 10^-6 cm/s

CC[C@@]1(O)C(=O)OCc2c1cc1n(c2=O)Cc2c-1nc1cc(F)c(C)c3c1c2[C@@H](NC(=O)C1(O)CCC1)CC3 [Ed9]
IC50 (SKBR-3; [10]): 0.0132 µM
IC50 (SKBR-3; [11]): 0.0131 ± 0.00424 µM
IC50 (MDA-MB-453; payloads, 3 days, HER2+): 120 nM
Topo I inhibitory activity (Topo I): significantly lower than that of DXd
IC50 (JIMT-1; payloads, 3 days, HER2+): 193 nM
IC50 (MDA-MB-231; [12]): 2.69 nM
IC50 (MDA-MB-361; payloads, 3 days, HER2+): 1.69 nM
Papp at 4 h, 10 µM [1]: 5.66 ×10⁻⁶ cm/s
IC50 (NCI-N87; payloads, 3 days, HER2++): 1.17 nM

CC[C@@]1(O)C(=O)OCc2c1cc1n(c2=O)Cc2c-1nc1cc(F)c(C)c3c1c2[C@@H](NC(=O)[C@H](O)C(C)C)CC3 [Ed2]
IC50 (SKBR-3; [8]): 0.0421 µM
IC50 (MDA-MB-231; payloads, 3 days (72 h), HER2-): 8.32 nM
Peff (PAMPA permeability) [1, 9]: 2.67 10^-6 cm/s

CC[C@@]1(O)C(=O)OCc2c1cc1n(c2=O)Cc2c-1nc1cc(F)c(C)c3c1c2[C@@H](NC(=O)C[C@@H](O)c1ccccc1)CC3 [Ed5]
IC50 (SKBR-3; [8]): 0.177 ± 0.0158 µM

NC(=O)N1c2ccccc2C=Cc2ccccc21 [Carbamazepine, reference compound]
Papp at 4 h, 10 µM [1, 13]: > 10 ×10⁻⁶ cm/s

CC[C@@]1(O)C(=O)OCc2c1cc1n(c2=O)Cc2c-1nc1cc(F)c(C)c3c1c2[C@@H](NC(=O)C(C)(C)O)CC3 [Ed8]
IC50 (SKBR-3; [10]): 0.0144 µM
IC50 (SKBR-3; [11]): 0.0144 ± 0.00379 µM
IC50 (MDA-MB-231; [12]): 4.21 nM
Papp at 4 h, 10 µM [1]: 5.74 ×10⁻⁶ cm/s

CC[C@@]1(O)C(=O)OCc2c1cc1n(c2=O)Cc2c-1nc1cc(F)c(C)c3c1c2[C@@H](NC(=O)C(O)C(F)(F)F)CC3 (stereo partly shown) [Ed7]
IC50 (SKBR-3; [8]): 0.0415 µM
IC50 (MDA-MB-231; payloads, 3 days (72 h), HER2-): 6.11 nM
Peff (PAMPA permeability) [1, 9]: 4.96 10^-6 cm/s

CC[C@@]1(O)C(=O)OCc2c1cc1n(c2=O)Cc2c-1nc1cc(F)c(C)c3c1c2[C@@H](NC(=O)C(O)c1ccccc1)CC3 (single isomer, unassigned) [Ed4]
IC50 (SKBR-3; [8]): 0.0495 ± 0.00832 µM
IC50 (MDA-MB-231; payloads, 3 days (72 h), HER2-): 4.41 nM
Peff (PAMPA permeability) [1, 9]: 3.43 10^-6 cm/s

CC[C@@]1(O)C(=O)OCc2c1cc1n(c2=O)Cc2c-1nc1cc(F)c(C)c3c1c2[C@@H](NC(=O)[C@H](O)C(F)(F)F)CC3 [Ed6]
IC50 (SKBR-3; [10]): 0.0604 µM
IC50 (SKBR-3; [11]): 0.0604 µM
IC50 (MDA-MB-231; [12]): 9.46 nM

CCC1(O)C(=O)OCc2c1cc1n(c2=O)Cc2c-1nc1cc(F)c(C)c3c1c2C(NC(=O)CO)CC3 (stereo not shown) [DXd, reference compound]
IC50 (SKBR-3; [6]): 0.0739 ± 0.0171 µM
IC50 (SKBR-3; [7]): 0.074 µM
IC50 (MDA-MB-453): 262 nM
IC50 (JIMT-1): 577 nM
IC50 (MDA-MB-231; Homo sapiens, MDA-MB-231, 72 h): 25.8 nM
IC50 (MDA-MB-361): 16.4 nM
Papp at 4 h, 10 µM [1, 13]: 3.12 ×10⁻⁶ cm/s
IC50 (NCI-N87): 9.03 nM

CC[C@@]1(O)C(=O)OCc2c1cc1n(c2=O)Cc2c-1nc1cc(F)c(C)c3c1c2[C@@H](NC(=O)C(O)c1ccccc1)CC3 (single isomer, unassigned) [Ed3]
IC50 (SKBR-3; [8]): 0.109 ± 0.0122 µM

T-DM1
effect [2]: limited effect
killing of both NCI-N87 and MDA-MB-231/GFP cells in co-culture [3]: did not
tumor volume change [4]: less effective

CC[C@@]1(O)C(=O)OCc2c1cc1n(c2=O)Cc2c-1nc1cc(F)c(C)c3c1c2[C@@H](NC(=O)C1(O)CCCC1)CC3 [Ed10]
IC50 (SKBR-3; [6]): 0.0178 ± 0.00369 µM
IC50 (SKBR-3; [7]): 0.0178 µM
Topo I inhibitory activity (Topo I): lose their inhibitory activity
IC50 (MDA-MB-231; Homo sapiens, MDA-MB-231, 72 h): 5.17 nM

B1: Disitamab Vedotin (conjugate, chains of the INN, looked up)
VH: EVQLVQSGAEVKKPGATVKISCKVSGYTFTDYYIHWVQQAPGKGLEWMGRVNPDHGDSYYNQKFKDKATITADKSTDTAYMELSSLRSEDTAVYFCARNYLFDHWGQGTLVTVSS
VL: DIQMTQSPSSVSASVGDRVTITCKASQDVGTAVAWYQQKPGKAPKLLIYWASIRHTGVPSRFSGSGSGTDFTLTISSLQPEDFATYYCHQFATYTFGGGTKVEIK
modifications: vedotin (MMAE) payload
ORR [5]: 38%
